Patent publication US6518012B1, “Method for regulating the expression of MHC antigens and CD40 by inhibitors of histone deacetylation” (Health Research, Inc., priority 1999, dated 2003)

How the values were obtained:
CD40 mRNA = CD40 mRNA by real-time PCR in Colon 26 and J558; type: cell-based, mouse
Description: (§1) In order to obtain more quantitative information on fold changes in DR and CIITA after treatment with the deacetylase inhibitors, a real time fluorescence technique capable of quantitating low copy numbers of transcripts was carried out as follows. Oligonucleotide primers and TaqMan 5′-6-FAM and 3′-TAMRA-labeled probes were synthesized in the RPCI Biopolymer Facility. Primer and probe sequences are listed under Sequence Listing and also in FIG. 9. Sequences were designed using standard software (PrimerExpress software, PE Biosystems) except for human GAPDH.
(§2) Realtime PCR reactions contained TaqMan Universal PCR Master Mix (PE Biosystems), primers at 300 nM, and probes at optimal concentrations (150-225 nM depending on gene). Reactions were carried out on an ABI PRISM 7700 Sequence Detection System (PE Biosystems). Cycling conditions were 50° C. for 2 min, 95° C. for 10 min, then 60 cycles of 95° C. for 15 sec, 60° C. for 1 min. PCR samples were run in triplicate. The detection system and quantitative PCR was carried out as described by Williamson et al. (1995, Genet Res. 65:83-93). The threshold cycle number CT corresponded to the cycle number, at which the fluorescent emission reaches 10 standard deviations above the mean fluorescent emission, measured during the early ‘baseline’ cycles of the PCR. The CT values for triplicates were averaged and normalized to GAPDH levels. […] In such cases, in order to calculate a minimum fold change for other samples in the same group, the CT value was arbitrarily set at 40. […] Assuming reverse transcription efficiencies were approximately the same for each sample, relative amounts of mRNA using the comparative CT method. Fold changes in mRNA levels were calculated as 2^x where x=the difference between normalized CT values of the control and experimental samples.
This embodiment illustrates the effect of DAIs on costimulatory molecules. Because of the importance of costimulatory molecules in the cellular activation mechanism involving MHC complexes, the effect of DAIs on the expression of B7-1, B7-2 and CD40 genes was investigated by real-time PCR as well as RT-PCR. While no consistent changes in B7-1 and B7-2 were detected (data not shown), CD40 expression was enhanced by TSA in all three cell types (FIGS. 7A, B, C). MC cells constitutively expressed low levels of CD40 and IFNγ enhanced CD40 mRNA levels 5-fold while TSA elicited a 12-fold increase at 24 hours (FIG. 7A). […] GADPH mRNA remained essentially unchanged with both the primer sites used in RT-PCR and real-time PCR. The lack of induction of CD40 by IFNγ in J558 cells is consistent with the failure of IFNγ to activate other IFNγ inducible genes.

IAα mRNA = assay: MHC class II (IAα) mRNA by RT-PCR and real-time PCR in mouse tumor models; type: cell-based; details: for fold increase in Ia (Iα): real-time PCR; for class II mRNA activation: titration with different concentrations of TSA for 12 hours, RT-PCR and real-time PCR
Description: To determine the effect of DAIs on HLA-DRα mRNA, cytoplasmic RNA was isolated from untreated and treated human trophoblast cell line JAR using standard techniques (RNeasy System from Qiagen). Standard PCR was performed using primers for DR and CIITA (Murphy et al., 1998, Reprod Dev., Chin et al., 1994, Immunity 1:687-697). Other primers used included human and mouse GAPDH (Clontech) and forward primer 5′-[…]-3′ (SEQ ID NO:25) and reverse primer 5′-[…]-3′ (SEQ ID NO:26) for mouse CIITA. PCR products were amplified with GOLD Taq for 10 min at 95° C., then 95° C. for 30 sec, 60° C. for 60 sec (25-45 cycles), then an extension at 60° C. for 10 min.
as §1, §2
(§3) To determine if the effect of DAIs on MHC class II was manifested in other tumors and in different species, the effect of TSA was tested on four commonly used mouse tumor models: the SaI fibrosarcoma, the Colon 26 adenocarcinoma, the J558 plasmacytoma and the P815 mastocytoma. TSA induced class II in all four mouse tumors examined, while the effects of IFNγ were variable (FIG. 4). Data presented for each cell line represents optimal incubation time and concentration of TSA and is compared with 100 U/ml of IFNγ at the same time point. Numbers over bars represents fold changes. […] Colon 26 and J558 that differed strikingly in their reactivity to IFNγ were selected for further evaluation. RT-PCR and real time PCR was used to examine induction of CIITA and IAα by TSA and IFNγ. A20, a constitutively positive B cell line was used as a positive control. The results are shown in FIGS. 5A-D. The numbers over bars represent fold changes. […] Since the classical IFNγ inducible genes IRF-1 and GBP as well as MHC class I mRNA were not induced by IFNγ in J558 (data not shown), this cell line may have a signaling defect in the IFNγ pathway. Unexpectedly however, and unlike either the MC or Colon 26 cells, TSA induced both CIITA (102-fold) and Iα (537-fold) in J558 as shown in FIGS. 5B and 5D.

[1] = tested on: DP and DQ isotypes of MHC class II mRNA; assay: mRNA for DP and DQ isotypes of MHC class II in SK-N-MC; type: cell-based, human; details: data not shown
[2] = tested on: IRF-1, GBP and MHC class I mRNA; assay: mRNA of IRF-1, GBP and MHC class I in J558; type: cell-based, mouse; details: IFNγ, data not shown
Description: as §3

[3] = Colon 26, 60 cycles, 100 U/ml IFNγ for 24 hours, TSA (12 and 48 hours)
[4] = J558, TSA 25 nM for 24 hours, IFNγ

Compound | CD40 mRNA fold increase (CD40 mRNA; [3]) | CD40 mRNA fold increase (CD40 mRNA; [4]) | fold increase in Ia (Iα) (IAα mRNA; Colon 26) [fold] | Iα (class II) fold induction (IAα mRNA; J558, RT-PCR and real-time PCR (FIGS. 5B and 5D)) [fold] | class II mRNA activation (IAα mRNA; J558) | induction of class II mRNA (IAα mRNA; all four mouse tumors (SaI, Colon 26, J558, P815), optimal incubation time and concentration of TSA) | mRNA for the DP and DQ isotypes of MHC class II [1] | IRF-1, GBP and MHC class I mRNA induction [2] | expression of class II (IAα mRNA; Colon 26, standard RT-PCR at 35 cycles) | induction of class II mRNA (IAα mRNA; J558, 100 U/ml IFNγ (FIG. 4)) | class II mRNA (IAα mRNA; P815, 100 U/ml IFNγ (FIG. 4)) | fold-increases in class II mRNA compared with TSA (IAα mRNA; SaI and Colon 26, 100 U/ml IFNγ)
CC(/C=C/C(=O)NO)=C\[C@@H](C)C(=O)c1ccc(N(C)C)cc1 [TSA, Trichostatin A] | 147 fold | 161 fold | 74 | 537 | induced | induced | induced |  |  |  |  | 
IFNγ: gamma-interferon, cytokine used as comparator at 100 U/ml | undetectable | did not change | 58 |  | failed to activate |  |  | not induced | induced | failed to induce | only weakly enhanced | nearly equivalent fold-increases
